The source of these data is patent US11453671B2, “Pyrazolopyrimidine inhibitors of JAK kinases and uses thereof” (Genentech, Inc., priority 2020, dated 2022).

One may read the IC50 as the point on the concentration scale where inhibition reaches its midpoint. By EC50 is commonly meant the midpoint of the concentration-response curve. A word on the Ki: it is a measure of affinity in units of concentration, obtained from inhibition or displacement.

Like-named read-outs stand apart in the source and are kept apart here.

The test system of data set [1] is JAK1: IL-13-stimulated STAT6 phosphorylation in BEAS-2B cells. The data set is described as follows: P-STAT6 BEAS-2B+IL-13 Cell Assay. Format: cell-based, human. Particulars: IL-13 stimulation, read-out: Cellular JAK1 PSTAT6 BEAS2B + IL13 IC50. A digest of the protocol: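 BEAS-2B cells in BEGM preincubated 1 h at 37 °C with 10-point, 1:2 compound dilutions, then stimulated 15 min with IL-13 (250 ng/mL stock). Lysate pSTAT6 (Tyr641) captured on total-STAT6 antibody and read by MSD electrochemiluminescence; IC50 from four-parameter logistic fit.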

A short description of data set [2]: Cell cytotoxicity assay HEK-293T (CellTiter-Glo, 72 hours). The data set is classed as cell-based. Particulars: human, HEK-293T cells, Table 3; 72 hours, top concentration of 50 μM; read-out: Cytotox K-293 EC50. From the text:
(§1) Cytotoxicity assays. Hepatocyte toxicity, general cytotoxicity or cytotoxicity of unknown mechanism is an undesirable feature for a potential drug, including inhaled drugs. It may be of benefit for an inhaled JAK1 or JAK1/JAK2 inhibitor to have low intrinsic cytotoxicity against various cell types. Typical cell types used to assess cytotoxicity include both primary cells such as human hepatocytes, and proliferating established cell lines such as Jurkat and HEK-293. […] Methods of measuring cytotoxicity are known in the art. In some embodiments, compounds described herein were tested as follows:
(§2) (a) Jurkat and HEK293T cells were maintained at a sub confluent density in T175 flasks. Cells were plated at 450 cells/45 μl medium in Greiner 384 well black/clear tissue culture treated plates. (Greiner Catalog #781091). After dispensing cells, plates were equilibrated at room temperature for 30 minutes. After 30 minutes at room temperature, cells were incubated overnight at 37° C. in a CO2 and humidity controlled incubator. The following day, cells were treated with compounds diluted in 100% DMSO (final DMSO concentration on cells=0.5%) with a 10 point dose-response curve with a top concentration of 50 μM. Cells and compounds were then incubated for 72 hours overnight at 37° C. in a CO2 and humidity controlled incubator. After 72 hours of incubation, viability was measured using CellTiterGlo® (Promega Catalog #G7572) to all wells. After incubation at room temperature for 20 minutes, plates were read on EnVision™ (Perkin Elmer Life Sciences) using luminescence mode;
(§3) A549 (ATCC® CCL-185™), Jurkat clone E6-1 (ATCC® TIB-152™) and HEK-293T (ATCC® CRL-1573™) cells maintained at a sub-confluent density in T175 flasks were used. Cells in exponential growth phase were plated (450 cells in 45 μL of medium) in Greiner 384-well black/clear tissue culture treated plates (Greiner Catalog No. 781091). After dispensing cells, plates were allowed to equilibrate at room temperature for 30 minutes, after which time the cell plates were placed overnight in a 37° C. CO2 and humidity-controlled incubator. The following day, cells were treated with test agent diluted in 100% DMSO (0.5% final DMSO concentration on cells) with a 10-point titration and a top concentration of 50 μM. Cells and compounds were then incubated for 72 hours in a 37° C. CO2 and humidity-controlled incubator, after which time cell viability was measured by adding CellTiter-Glo® (Promega G7572) reagent to all wells. Plates were incubated at room temperature for 20 minutes and then the well luminescence was read on an EnVision plate reader (Perkin Elmer Life Sciences).
(In general: In ATP-based viability assays light output follows the ATP content of the culture.)

A short description of data set [3]: Cell cytotoxicity assay Jurkat (CellTiter-Glo, 72 hours). Particulars: human, Jurkat clone E6-1 cells, Table 3; 72 hours, top concentration of 50 μM; read-out: Cytotox Jurkat EC50. Format: cell-based.
Source text: as §1, §2, §3

Data set [4] is described as follows: Cell cytotoxicity assay A549 (CellTiter-Glo, 72 hours). The data set is classed as cell-based. The note with it: human, A549 cells, Table 3; 72 hours, top concentration of 50 μM; read-out: Cytotox A549 EC50. As for the experimental part: as §3
Data set [5] has as its target Recombinant human JAK2 kinase domain protein (Residues 812-1132) (Homo sapiens, UniProt O60674). Kind of data set: JAK2 biochemical assay (microfluidic mobility shift, peptide phosphorylation). Particulars: Enzyme JAK2 Ki (nM), 25 μM ATP, 0.2 nM total JAK2.

Recombinant human JAK2 kinase domain protein (Residues 812-1132), sequence (O60674 812-1132): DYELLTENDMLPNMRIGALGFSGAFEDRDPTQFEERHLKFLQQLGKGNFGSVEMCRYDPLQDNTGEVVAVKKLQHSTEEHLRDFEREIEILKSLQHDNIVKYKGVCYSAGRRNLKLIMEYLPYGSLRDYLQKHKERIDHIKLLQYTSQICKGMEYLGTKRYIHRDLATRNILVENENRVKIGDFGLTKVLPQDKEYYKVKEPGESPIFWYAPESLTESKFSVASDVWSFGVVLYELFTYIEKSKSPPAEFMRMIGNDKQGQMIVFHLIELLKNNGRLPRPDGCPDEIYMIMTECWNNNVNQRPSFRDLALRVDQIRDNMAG

For the compound `C[C@H](Cn1cc(S(=O)(=O)c2ccc(OC(F)F)c(-c3nn(C)cc3NC(=O)c3cnn4cccnc34)c2)cn1)N(C)C` [Example 59, N-[3-[2-(difluoromethoxy)-5-[1-[(2R)-2-(dimethylamino)propyl]pyrazol-4-yl]sulfonyl-phenyl]-1-methyl-pyrazol-4-yl]pyrazolo[1,5-a]pyrimidine-3-carboxamide], the IC50 in data set [1] (Homo sapiens, BEAS-2B) stood at 0.032 µM. Besides, the EC50 at 72 h in data set [2] was 14 µM; in data set [3], 30 µM; in data set [4], 43 µM. In addition, in data set [5], the inhibition constant (Ki) was determined as 0.54 nM.
On the same counts, the results for `Cn1cc(NC(=O)c2cnn3cccnc23)c(-c2cc(S(=O)(=O)CCO)ccc2OC(F)F)n1` [Example 5, N-[3-[2-(difluoromethoxy)-5-(2-hydroxyethylsulfonyl)phenyl]-1-methyl-pyrazol-4-yl]pyrazolo[1,5-a]pyrimidine-3-carboxamide] are 0.035 µM, 10.2 µM, 23 µM, 45.5 µM and 0.19 nM.
On the same counts, the results for `Cn1cc(NC(=O)c2cnn3cccnc23)c(-c2cc(S(=O)(=O)C3CC3)ccc2OC(F)F)n1` [Example 22, N-[3-[5-cyclopropylsulfonyl-2-(difluoromethoxy)phenyl]-1-methyl-pyrazol-4-yl]pyrazolo[1,5-a]pyrimidine-3-carboxamide] are 0.023 µM, 43 µM, at least 50 µM, at least 50 µM and 0.19 nM.
In the case of `CC(CO)S(=O)(=O)c1ccc(OC(F)F)c(-c2nn(C)cc2NC(=O)c2cnn3cccnc23)c1` (single isomer, unassigned) [Example 23, N-[3-[2-(difluoromethoxy)-5-(2-hydroxy-1-methyl-ethyl)sulfonyl-phenyl]-1-methyl-pyrazol-4-yl]pyrazolo[1,5-a]pyrimidine-3-carboxamide], in data set [1], the IC50 turned out to be 0.014 µM. The EC50 at 72 h in data set [2] stood at 11 µM; in data set [3], 24 µM; in data set [4], 28 µM. In data set [5], the Ki worked out at 0.13 nM.
In the case of `Cn1cc(NC(=O)c2cnn3cccnc23)c(-c2cc(S(=O)(=O)C3CCCNC3)ccc2OC(F)F)n1` (single isomer, unassigned) [Example 37, N-[3-[2-(difluoromethoxy)-5-(3-piperidylsulfonyl)phenyl]-1-methyl-pyrazol-4-yl]pyrazolo[1,5-a]pyrimidine-3-carboxamide], the 50% inhibitory concentration (IC50) in data set [1] (Homo sapiens, BEAS-2B) is 0.046 µM. Moreover, the EC50 at 72 h in data set [2] is 31 µM; in data set [3], at least 50 µM; in data set [4], at least 50 µM. The Ki in data set [5] came to 0.54 nM.
Consider `Cn1cc(NC(=O)c2cnn3cccnc23)c(-c2cc(S(=O)(=O)c3ccccc3)ccc2OC(F)F)n1` [Example 40, N-[3-[5-(benzenesulfonyl)-2-(difluoromethoxy)phenyl]-1-methyl-pyrazol-4-yl]pyrazolo[1,5-a]pyrimidine-3-carboxamide], for which the 50% inhibitory concentration (IC50) in data set [1] (Homo sapiens, BEAS-2B) came out at 0.024 µM. Further, the EC50 at 72 h in data set [2], in data set [3] and in data set [4] was at least 50 µM each time. For the same compound, the inhibition constant Ki in data set [5] worked out at 0.11 nM.
In the case of `Cn1cc(S(=O)(=O)c2ccc(OC(F)F)c(-c3nn(C)cc3NC(=O)c3cnn4cccnc34)c2)cn1` [Example 35, N-[3-[2-(difluoromethoxy)-5-(1-methylpyrazol-4-yl)sulfonyl-phenyl]-1-methyl-pyrazol-4-yl]pyrazolo[1,5-a]pyrimidine-3-carboxamide], in data set [1] (Homo sapiens, BEAS-2B), the 50% inhibitory concentration (IC50) is 0.024 µM. Further, the EC50 at 72 h amounted to 17 µM in data set [2], 21 µM in data set [3] and 22 µM in data set [4]. In addition, the Ki in data set [5] was determined as 0.19 nM.
Take `CNS(=O)(=O)c1ccc(OC(F)F)c(-c2nn(C)cc2NC(=O)c2cnn3cccnc23)c1` [Example 26, N-[3-[2-(difluoromethoxy)-5-(methylsulfamoyl)phenyl]-1-methyl-pyrazol-4-yl]pyrazolo[1,5-a]pyrimidine-3-carboxamide]: in data set [1] (Homo sapiens, BEAS-2B), the half-inhibitory concentration (IC50) was 0.011 µM. Moreover, the EC50 at 72 h in data set [2] amounted to 5.8 µM; in data set [3] it was 12 µM; in data set [4], 11 µM. Moreover, the Ki in data set [5] was determined as 0.097 nM.
Taken in the same sequence, the figures for `Cn1cc(NC(=O)c2cnn3cccnc23)c(-c2cc(S(=O)(=O)c3ccncc3)ccc2OC(F)F)n1` [Example 16, N-[3-[2-(difluoromethoxy)-5-(4-pyridylsulfonyl)phenyl]-1-methyl-pyrazol-4-yl]pyrazolo[1,5-a]pyrimidine-3-carboxamide] were 0.015 µM, 7.6 µM, 6.2 µM, 7.4 µM and 0.19 nM.
Taken in the same sequence, the figures for `C[C@H](O)CS(=O)(=O)c1ccc(OC(F)F)c(-c2nn(C)cc2NC(=O)c2cnn3cccnc23)c1` (stereo in doubt) [Example 15, N-[3-[2-(difluoromethoxy)-5-[rac-(2S)-2-hydroxypropyl]sulfonyl-phenyl]-1-methyl-pyrazol-4-yl]pyrazolo[1,5-a]pyrimidine-3-carboxamide] were 0.02 µM, 25 µM, 35 µM, 25 µM and 0.16 nM.
On the same counts, the results for `N#CCn1cc(NC(=O)c2cnn3cccnc23)c(-c2cc(S(=O)(=O)C3CC3)ccc2OC(F)F)n1` [Example 45, N-[1-(cyanomethyl)-3-[5-cyclopropylsulfonyl-2-(difluoromethoxy)phenyl]pyrazol-4-yl]pyrazolo[1,5-a]pyrimidine-3-carboxamide] are 0.035 µM, at least 50 µM, at least 50 µM, at least 50 µM and 0.35 nM.
`Cn1cc(NC(=O)c2cnn3cccnc23)c(-c2cc(S(=O)(=O)c3cn[nH]c3)ccc2OC(F)F)n1` [Example 41, N-[3-[2-(difluoromethoxy)-5-(1H-pyrazol-4-ylsulfonyl)phenyl]-1-methyl-pyrazol-4-yl]pyrazolo[1,5-a]pyrimidine-3-carboxamide]: in data set [1] (Homo sapiens, BEAS-2B), the IC50 is 0.037 µM. In addition, the values for the EC50 at 72 h in data set [2], in data set [3] and in data set [4] were 28 µM, 35 µM and at least 50 µM, respectively. Moreover, the Ki in data set [5] came to 0.1 nM.
As to `Cn1cc(NC(=O)c2cnn3cccnc23)c(-c2cc3c(cc2OC(F)F)NCCS3(=O)=O)n1` [Example 46, N-[3-[6-(difluoromethoxy)-1,1-dioxo-3,4-dihydro-2H-1lambda6,4-benzothiazin-7-yl]-1-methyl-pyrazol-4-yl]pyrazolo[1,5-a]pyrimidine-3-carboxamide], the IC50 in data set [1] (Homo sapiens, BEAS-2B) was 0.049 µM. Also, the concentration giving a half-maximal response (EC50) at 72 h in data set [2], in data set [3] and in data set [4] was at least 50 µM each time. Moreover, the inhibition constant Ki in data set [5] came out at 0.087 nM.
Regarding `COc1cccc(S(=O)(=O)c2ccc(OC(F)F)c(-c3nn(C)cc3NC(=O)c3cnn4cccnc34)c2)c1` [Example 12, N-[3-[2-(difluoromethoxy)-5-(3-methoxyphenyl)sulfonyl-phenyl]-1-methyl-pyrazol-4-yl]pyrazolo[1,5-a]pyrimidine-3-carboxamide], the IC50 in data set [1] (Homo sapiens, BEAS-2B) was 0.018 µM. The concentration for a half-maximal effect (EC50) at 72 h in data set [2] is 36 µM; in data set [3] it was at least 50 µM; in data set [4] it was at least 50 µM. Also, the Ki in data set [5] was found to be 0.14 nM.
